{
  "source": "ChEMBL document CHEMBL2073932",
  "about": "“Induction of human MDR1 gene expression by 2-acetylaminofluorene is mediated by effectors of the phosphoinositide 3-kinase pathway that activate NF-kappaB signaling” (Oncogene, 2002)",
  "key": {"[1]": {"target": "T1, ATP-dependent translocase ABCB1 (Homo sapiens, UniProt P08183)", "T1 sequence (P08183 whole entry)": "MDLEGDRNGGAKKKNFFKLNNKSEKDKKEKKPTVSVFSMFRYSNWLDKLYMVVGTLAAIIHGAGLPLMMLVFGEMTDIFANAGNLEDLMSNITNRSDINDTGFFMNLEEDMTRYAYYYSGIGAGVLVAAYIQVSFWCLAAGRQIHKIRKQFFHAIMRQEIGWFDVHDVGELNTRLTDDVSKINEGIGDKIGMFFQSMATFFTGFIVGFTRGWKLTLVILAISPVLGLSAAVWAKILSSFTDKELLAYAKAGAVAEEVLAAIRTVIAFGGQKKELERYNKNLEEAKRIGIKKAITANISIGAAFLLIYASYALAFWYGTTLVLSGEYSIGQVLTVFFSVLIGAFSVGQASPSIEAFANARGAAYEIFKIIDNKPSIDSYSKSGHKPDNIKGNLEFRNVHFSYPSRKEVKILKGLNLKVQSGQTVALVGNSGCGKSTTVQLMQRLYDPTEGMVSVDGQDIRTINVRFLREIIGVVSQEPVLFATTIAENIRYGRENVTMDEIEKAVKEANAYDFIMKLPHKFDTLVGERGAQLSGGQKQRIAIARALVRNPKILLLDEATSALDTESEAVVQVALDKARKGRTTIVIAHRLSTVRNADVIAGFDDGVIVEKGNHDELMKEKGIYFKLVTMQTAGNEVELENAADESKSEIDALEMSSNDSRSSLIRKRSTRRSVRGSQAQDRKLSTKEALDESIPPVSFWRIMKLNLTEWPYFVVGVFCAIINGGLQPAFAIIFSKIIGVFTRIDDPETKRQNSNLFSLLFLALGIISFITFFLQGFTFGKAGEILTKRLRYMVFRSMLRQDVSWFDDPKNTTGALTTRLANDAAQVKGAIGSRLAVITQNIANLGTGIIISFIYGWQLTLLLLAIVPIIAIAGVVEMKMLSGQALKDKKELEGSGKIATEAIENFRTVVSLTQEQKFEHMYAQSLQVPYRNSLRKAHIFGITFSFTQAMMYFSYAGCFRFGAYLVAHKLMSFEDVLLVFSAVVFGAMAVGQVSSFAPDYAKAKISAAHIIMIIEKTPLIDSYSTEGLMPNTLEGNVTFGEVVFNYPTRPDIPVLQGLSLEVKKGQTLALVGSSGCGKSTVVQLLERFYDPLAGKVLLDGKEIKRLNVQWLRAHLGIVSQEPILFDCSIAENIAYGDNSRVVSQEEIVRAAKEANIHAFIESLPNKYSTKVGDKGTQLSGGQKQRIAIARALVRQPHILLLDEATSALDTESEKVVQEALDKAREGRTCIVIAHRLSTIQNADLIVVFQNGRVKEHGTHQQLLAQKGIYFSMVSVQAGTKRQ", "assay": "TP_TRANSPORTER: RNase protection assay in HepG2 cells", "assay_type": "functional, cell-based"}, "[2]": {"target": "T1, ATP-dependent translocase ABCB1", "assay": "TP_TRANSPORTER: RNase protection assay in embryonic 293 cells", "assay_type": "functional, cell-based", "details": "hek293"}},
  "data": [
    {"smiles": "CC(=O)Nc1ccc2c(c1)Cc1ccccc1-2", "note": "[2-ACETYLAMINOFLUORENE]", "values": [
      {"measurement": "Activity", "setting": "[1]", "result": "inducer [+]"},
      {"measurement": "Activity", "setting": "[2]", "result": "inducer [+]"}
    ]}
  ]
}
